Experimental data: the supplement of paper PMC11451515

Experiments:
Settings in all cases: 48 h
NOMO1 [1] = test: AUC of viability dose-response curve (% viability x log10 dose units); higher = less sensitive
In short: (§1)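 Library compounds in DMSO were applied for 48 h at 37°C at 11 threefold doses (47 μM to 0.79 nM) to medium-adapted leukemia cells in 1536-well plates holding 500 or 1000 cells/well. Luminescence from CellTiter-Glo One was normalised plate by plate against DMSO and cell-free wells. Area under the curve came from trapezoidal integration of a log-logistic fit, after scaling curves that rose above full viability and discarding those that failed quality control. The fit had four parameters and used log10 doses.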

P12-Ichikawa [2] = test: as above
In short: as §1

SEM cells [3] = test: as above
In short: as §1

NOMO1 [4] = test: cell viability relative to DMSO control; higher = less cytotoxic
In short: (§2)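 Cells were incubated for 48 h at 37°C before CellTiter-Glo One luminescence was read. The cells were NOMO1 or SEM (500 cells/well) or P12-Ichikawa (1000 cells/well) leukemia cells, adapted for at least four passages in each medium and seeded in 1536-well plates (5 μl). Dosing used library compounds in DMSO applied by pin over 11 threefold points, 47 μM to 0.79 nM. Viability is the per-plate percentage of DMSO wells, with cell-free wells as background.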

P12-Ichikawa [5] = test: as above
In short: as §2

SEM cells [6] = test: as above
In short: as §2

CN1C2CCC1CC(OC(=O)C(CO)c1ccccc1)C2 (stereo not given)
AUC of viability dose-response curve
Settings	NOMO1 [1]	P12-Ichikawa [2]	SEM cells [3]
HPLM + 10% dialyzed FBS	467	454	464
RPMI 5 mM glucose + 10% FBS	463	465	439
RPMI 5 mM glucose + 10% dialyzed FBS	472	469	474

Oc1ccc([C@@H]2Oc3ccc(O)cc3[C@@H]3CCC[C@@H]32)cc1
cell viability [%]
Settings	NOMO1 [4]	P12-Ichikawa [5]	SEM cells [6]
HPLM + 10% dialyzed FBS, 0.000781 µM	92.1	86.9	71.9
HPLM + 10% dialyzed FBS, 0.00234 µM	93.1	90.2	90.5
HPLM + 10% dialyzed FBS, 0.00702 µM	95.1	94.7	91.8
HPLM + 10% dialyzed FBS, 0.0211 µM	102	93.5	92
HPLM + 10% dialyzed FBS, 0.0632 µM	98	92.7	80.2
HPLM + 10% dialyzed FBS, 0.19 µM	89.3	95.1	90.6
HPLM + 10% dialyzed FBS, 0.569 µM	90.5	94.3	38.7
HPLM + 10% dialyzed FBS, 1.71 µM	94.2	90.5	81.9
HPLM + 10% dialyzed FBS, 5.12 µM	79.3	87.4	89.3
HPLM + 10% dialyzed FBS, 15.4 µM	62	40.6	31.4
HPLM + 10% dialyzed FBS, 46.1 µM	31.8	12.2	21.6
RPMI 5 mM glucose + 10% FBS, 0.000781 µM	93.3	88.5	60.6
RPMI 5 mM glucose + 10% FBS, 0.00234 µM	105	82.6	103
RPMI 5 mM glucose + 10% FBS, 0.00702 µM	97.5	92.7	97.5
RPMI 5 mM glucose + 10% FBS, 0.0211 µM	88.1	88.7	103
RPMI 5 mM glucose + 10% FBS, 0.0632 µM	87.3	90	106
RPMI 5 mM glucose + 10% FBS, 0.19 µM	100	87	111
RPMI 5 mM glucose + 10% FBS, 0.569 µM	99.9	85.5	44.4
RPMI 5 mM glucose + 10% FBS, 1.71 µM	89.7	85.4	103
RPMI 5 mM glucose + 10% FBS, 5.12 µM	81.8	82.3	104
RPMI 5 mM glucose + 10% FBS, 15.4 µM	77	34.1	40.3
RPMI 5 mM glucose + 10% FBS, 46.1 µM	28.8	12	18.1
RPMI 5 mM glucose + 10% dialyzed FBS, 0.000781 µM	93.8	76.8	80.4
RPMI 5 mM glucose + 10% dialyzed FBS, 0.00234 µM	92.1	80.7	94.9
RPMI 5 mM glucose + 10% dialyzed FBS, 0.00702 µM	97.7	87.2	98.4
RPMI 5 mM glucose + 10% dialyzed FBS, 0.0211 µM	90.7	85.6	97
RPMI 5 mM glucose + 10% dialyzed FBS, 0.0632 µM	90.8	82.8	96.1
RPMI 5 mM glucose + 10% dialyzed FBS, 0.19 µM	94.1	76.6	104
RPMI 5 mM glucose + 10% dialyzed FBS, 0.569 µM	90.7	82.4	102
RPMI 5 mM glucose + 10% dialyzed FBS, 1.71 µM	87.4	76.5	103
RPMI 5 mM glucose + 10% dialyzed FBS, 5.12 µM	83.2	72.8	94.9
RPMI 5 mM glucose + 10% dialyzed FBS, 15.4 µM	63.7	44.6	29
RPMI 5 mM glucose + 10% dialyzed FBS, 46.1 µM	25.6	14.4	18.4

AUC of viability dose-response curve
Settings	HPLM + 10% dialyzed FBS	RPMI 5 mM glucose + 10% FBS	RPMI 5 mM glucose + 10% dialyzed FBS
NOMO1 [1]	412	423	406
P12-Ichikawa [2]	394	372	349

COC1=CC=C2[N](CCCN(C)C)C=C(C2=C1)C/3=C(/C(=O)NC3=O)C4=C[NH]C5=C4C=CC=C5
SEM cells [6], HPLM + 10% dialyzed FBS
Settings	cell viability [%]
0.000781 µM	107
0.00234 µM	123
0.00702 µM	123
0.0211 µM	123
0.0632 µM	122
0.19 µM	57.2
0.569 µM	132
1.71 µM	111
5.12 µM	88.4
15.4 µM	67.4
46.1 µM	8.06

AUC of viability dose-response curve
Settings	NOMO1 [1]	P12-Ichikawa [2]	SEM cells [3]
HPLM + 10% dialyzed FBS	471	456	425
RPMI 5 mM glucose + 10% FBS	471	453	365
RPMI 5 mM glucose + 10% dialyzed FBS	472	452	387

Clc1ccc2ncc(-c3cccc(NC4CNC4)n3)n2c1
cell viability [%], SEM cells [6]
Settings	HPLM + 10% dialyzed FBS	RPMI 5 mM glucose + 10% FBS
0.000781 µM	120	119
0.00234 µM	121	122
0.00702 µM	125	131
0.0211 µM	125	121
0.0632 µM	136	147
0.19 µM	122	141
0.569 µM	115	119
1.71 µM	113	115
5.12 µM	77.5	105
15.4 µM	67.1	76.9
46.1 µM	45.8	47.6

AUC of viability dose-response curve
Settings	NOMO1 [1]	P12-Ichikawa [2]	SEM cells [3]
HPLM + 10% dialyzed FBS	433	441	412
RPMI 5 mM glucose + 10% FBS	455	439	427
RPMI 5 mM glucose + 10% dialyzed FBS	443	443	411
